The source of these data is patent publication EP0343258B1, “AGENT FOR PROPHYLAXIS AND TREATMENT OF VIRALLY INFECTED DISEASES” (MITSUI TOATSU CHEMICALS, Inc., priority 1987, dated 1989).

A short description of data set [1]: Toxicity test, repeated subcutaneous administration to mice. It is filed as in vivo, ddy male mice. The text has this: (§1) Thus, the medicament of the present invention is a safe medicament of extremely low toxicity and can be administered for a long period of time.
A short description of data set [2]: Toxicity test, repeated subcutaneous administration to rats. It is filed as in vivo, wister rats. Particulars: 30 mg/kg subcutaneously for consecutive 21 days.
From the text: as §1

Another data set deals with REO virus type II. Kind of data set: Jerne plaque assay (antibody-forming cells against SRBC) in REO virus-infected new-born NC mice. The format is in vivo. The following applies: 10⁵ PFU REO virus; MDP 20 µg/mouse with Freund incomplete adjuvant, given with SRBC 2 weeks after infection; measured 4 days later. The method, then: Two weeks after the infection of 10⁵ PFU REO virus, sheep red blood cells (referred to hereinafter simply as SRBC) was intraperitoneally administered and 4 days after the administration, the number of hemolysis plaques was measured by way of Jerne plaque assay as a production amount of antibody-forming cells against SRBC. The number of hemolysis plaques was 15±2 per 10⁶ spleen cells in a group not infected with REO virus, while that was 2.8±1.6 in an infected group, thus showing a remarkable immunity inhibitory state. In compliance with this, atrophy of thymus and decrease in the number of thymic cortex lymphocytes were observed.
In a group to which muramyl dipeptide was administered in an amount of 20 µg/mouse together with Freund incomplete adjuvant, the number of hemolysis plaques was 11±2.
Next, recovery of the immune function by immunity-enhancing substance was examined, using new-born mice infected with REO virus type II. Two weeks after the infection of the mice with the virus, sheep red blood cells were administered to the mice, and 4 days after the administration, Jerne plaque assay was carried out to measure the number of hemolysis plaques. […]
Mice infected with virus was immunized at the same time with SRBC and an immunostimulant, and 4 days after the immunization, the number of hemolysis plaques was measured by Jerne plaque assay. […]

Non-standard residues stand in square brackets, D forms with d. Residues, ends and D or L forms follow the SMILES beside them. pGlu = O=C1CC[C@@H](C(=O)O)N1

Turning to `C[C@H](NC(=O)[C@@H]1CCC(=O)N1)C(=O)N[C@@H](CCCCN)C(=O)N[C@@H](CO)C(=O)N[C@@H](CCC(N)=O)C(=O)NCC(=O)NCC(=O)N[C@@H](CO)C(=O)N[C@@H](CC(N)=O)C(=O)O` [FTS, pGlu-Ala-Lys-Ser-Gln-Gly-Gly-Ser-Asn] ([pGlu]AKSQGGSN-OH), the toxicity entry in data set [1] (50 mg/kg and 100mg/kg subcutaneously for consecutive 14 days) is recorded as “No toxicity was observed”. The “abnormal symptom by external check” value in data set [1] (100 mg/kg subcutaneously every day for consecutive 14 days) is on record as “no abnormal symptom was found”. In data set [2], the “abnormal symptom in external behavior observation, biochemical diagnosis of sera and pathological anatomy” value is recorded as “no abnormal symptom was found”; the toxicity entry is “No toxicity was observed”.

For the molecule `CC(=O)N[C@H]1C(O)O[C@H](CO)[C@@H](O)[C@@H]1O[C@H](C)C(=O)N[C@@H](C)C(=O)N[C@H](CCC(=O)O)C(N)=O` (some centres unmarked) [MDP, muramyl dipeptide], in the data set on REO virus type II, the PFC/10⁶ spleen cells amounted to 11±2 PFC/10⁶ spleen cells.
